Results published in PMC3494675, “Structure-Function Analysis of the Glioma Targeting NFL-TBS.40-63 Peptide Corresponding to the Tubulin-Binding Site on the Light Neurofilament Subunit” (PLoS ONE, 2012).
Peptide text beside a SMILES is read from it. * marks the point of attachment. Biotin = O=C1N[C@H]2[C@H](CS[C@H]2CCCCC(=O)*)N1

Tests used:
[1] = tested on: T98G human glioblastoma cells; assay: Disintegration of the microtubule network in T98G cells (anti-tubulin immunostaining, cell counting); format: cell-based; conditions: T98G cells, 10 µM biotinylated peptide, 6 hours; anti-tubulin immunostaining; minimum 200 cells per experiment; mean ± S.E.M., triplicated
Procedure: (§1) Cells containing the biotinylated peptide were detected using Alexa-labeled avidin (green fluorescence) and those displaying a normal or a destroyed MT network were detected with an anti-tubulin antibody (red fluorescence) ( Figure 1A-B ). Then, we counted a minimum of 200 cells per slide containing or not the peptide, and with a normal or destroyed microtubule network ( Figure 1C ). As illustrated on Figure 1A glioblastoma cells contain a rich MT network. […] Cells were plated on cover slips and cultured in media containing biotinylated peptides (10 μM) for 6 hours. […] The cells were then incubated during 10 min in a 0.5% triton X-100 permeabilization solution, and washed 3 times in PBS. Next, they were incubated in a blocking solution (PBS 5% BSA) for 15 min, then incubated with mouse anti-ß-tubulin antibody (Sigma) 1/200 overnight. Tubulin and biotinylated peptides were localized using respectively Alexa 568 nm anti-mouse antibody and streptavidin Alexa 488 nm (Molecular Probes) 1/200 for 1 hour, followed by washing in PBS. […] Sigma) for 5 min, washed twice with PBS, then cover slips were mounted with an antifading solution. Observations were performed with an Olympus confocal microscope (BX50) using Fluoview.3.1. Software or a Leica DMI6000 inverted microscope and analyzed with Metamorph 7.1.7.0. software. We counted cells containing the peptide and cells displaying a destroyed MT network. Experiments were repeated at least three times, and a minimum of 200 cells was scored during each experiment.

[2] = tested on: T98G human glioblastoma cells; assay: Peptide incorporation into T98G cells (immunocytochemistry, cell counting); format: cell-based; conditions: 6 hours; for Peptide incorporation (% of cells): T98G cells, 10 µM biotinylated peptide, Alexa-labeled avidin/streptavidin fluorescence microscopy, minimum 200 cells per experiment, mean ± S.E.M., triplicated
Procedure: as §1

| SMILES | Disintegration of MT (% of cells) [1] | Peptide incorporation (% of cells) [2] | Cell penetration / internalization in T98G cells (in words) ([2]; 10 µM, immunocytochemistry, compared to original NFL-TBS.40-63) |
| --- | --- | --- | --- |
| CC(C)C[C@H](NC(=O)[C@H](CO)NC(=O)[C@H](CO)NC(=O)[C@H](CO)NC(=O)[C@@H](NC(=O)[C@@H]1CCCN1C(=O)[C@H](C)NC(=O)[C@H](CO)NC(=O)[C@H](Cc1ccc(O)cc1)NC(=O)[C@H](CO)NC(=O)[C@H](CO)NC(=O)[C@H](Cc1ccc(O)cc1)NC(=O)CCCC[C@@H]1SC[C@@H]2NC(=O)N[C@@H]21)C(C)C)C(=O)N[C@@H](CO)C(=O)N[C@H](C(=O)N[C@@H](CCCNC(=N)N)C(=O)N[C@@H](CCCNC(=N)N)C(=O)N[C@@H](CO)C(=O)N[C@@H](Cc1ccc(O)cc1)C(=O)N[C@@H](CO)C(=O)N[C@@H](CO)C(=O)N[C@@H](CO)C(=O)N[C@@H](CO)C(=O)NCC(=O)N[C@@H](CO)C(N)=O)C(C)C [Ala6Ala] (Biotin-YSSYSAPVSSSLSVRRSYSSSSGS-NH2) | 48.1±6.6 % of cells | 50.3±4.6 % of cells | – |
| CC(C)C[C@H](NC(=O)[C@H](CO)NC(=O)[C@H](CO)NC(=O)[C@H](CO)NC(=O)[C@@H](NC(=O)[C@@H]1CCCN1C(=O)[C@H](C)NC(=O)[C@H](CO)NC(=O)[C@H](Cc1ccc(O)cc1)NC(=O)[C@H](CO)NC(=O)[C@H](CO)NC(=O)[C@H](Cc1ccc(O)cc1)NC(=O)CCCC[C@@H]1SC[C@@H]2NC(=O)N[C@@H]21)C(C)C)C(=O)N[C@@H](CO)C(=O)N[C@H](C(=O)N[C@@H](C)C(=O)N[C@@H](CCCNC(=N)N)C(=O)N[C@@H](CO)C(=O)N[C@@H](Cc1ccc(O)cc1)C(=O)N[C@@H](CO)C(=O)N[C@@H](CO)C(=O)N[C@@H](CO)C(=O)N[C@@H](CO)C(=O)NCC(=O)N[C@@H](CO)C(N)=O)C(C)C [Arg15Ala] (Biotin-YSSYSAPVSSSLSVARSYSSSSGS-NH2) | 25.5±6.3 % of cells | 18.1±1.3 % of cells | – |
| CC(C)C[C@H](NC(=O)[C@H](CO)NC(=O)[C@H](CO)NC(=O)[C@H](CO)NC(=O)[C@@H](NC(=O)[C@@H]1CCCN1C(=O)[C@H](C)NC(=O)[C@H](CO)NC(=O)[C@H](Cc1ccc(O)cc1)NC(=O)[C@H](CO)NC(=O)[C@H](CO)NC(=O)[C@H](C)NC(=O)CCCC[C@@H]1SC[C@@H]2NC(=O)N[C@@H]21)C(C)C)C(=O)N[C@@H](CO)C(=O)N[C@H](C(=O)N[C@@H](CCCNC(=N)N)C(=O)N[C@@H](CCCNC(=N)N)C(=O)N[C@@H](CO)C(=O)N[C@@H](Cc1ccc(O)cc1)C(=O)N[C@@H](CO)C(=O)N[C@@H](CO)C(=O)N[C@@H](CO)C(=O)N[C@@H](CO)C(=O)NCC(=O)N[C@@H](CO)C(N)=O)C(C)C [Tyr1Ala] (Biotin-ASSYSAPVSSSLSVRRSYSSSSGS-NH2) | 24.1±4.6 % of cells | 0 % of cells | – |
| CC(C)C[C@H](NC(=O)[C@H](CO)NC(=O)[C@H](CO)NC(=O)[C@H](CO)NC(=O)[C@@H](NC(=O)[C@@H]1CCCN1C(=O)[C@H](C)NC(=O)[C@H](CO)NC(=O)[C@H](Cc1ccc(O)cc1)NC(=O)[C@H](CO)NC(=O)[C@H](CO)NC(=O)[C@H](Cc1ccc(O)cc1)NC(=O)CCCC[C@@H]1SC[C@@H]2NC(=O)N[C@@H]21)C(C)C)C(=O)N[C@@H](CO)C(=O)N[C@H](C(=O)N[C@@H](CCCNC(=N)N)C(=O)N[C@@H](CCCNC(=N)N)C(=O)N[C@@H](CO)C(=O)N[C@@H](Cc1ccc(O)cc1)C(=O)N[C@@H](CO)C(=O)N[C@@H](CO)C(=O)N[C@@H](C)C(=O)N[C@@H](CO)C(=O)NCC(=O)N[C@@H](CO)C(N)=O)C(C)C [Ser21Ala] (Biotin-YSSYSAPVSSSLSVRRSYSSASGS-NH2) | 31.6±5.1 % of cells | 55.4±5.9 % of cells | – |
| CC(C)C[C@H](NC(=O)[C@H](CO)NC(=O)[C@H](CO)NC(=O)[C@H](CO)NC(=O)[C@@H](NC(=O)[C@@H]1CCCN1C(=O)[C@H](C)NC(=O)[C@H](CO)NC(=O)[C@H](Cc1ccc(O)cc1)NC(=O)[C@H](CO)NC(=O)[C@H](CO)NC(=O)[C@H](Cc1ccc(O)cc1)NC(=O)CCCC[C@@H]1SC[C@@H]2NC(=O)N[C@@H]21)C(C)C)C(=O)N[C@@H](CO)C(=O)N[C@H](C(=O)N[C@@H](CCCNC(=N)N)C(=O)N[C@@H](CCCNC(=N)N)C(=O)N[C@@H](CO)C(=O)N[C@@H](Cc1ccc(O)cc1)C(=O)N[C@@H](CO)C(=O)N[C@@H](CO)C(=O)N[C@@H](CO)C(=O)N[C@@H](CO)C(=O)NCC(=O)N[C@@H](C)C(N)=O)C(C)C [Ser24Ala] (Biotin-YSSYSAPVSSSLSVRRSYSSSSGA-NH2) | 29.4±0.6 % of cells | 44.3±6.7 % of cells | – |
| CC(C)[C@H](NC(=O)[C@H](CO)NC(=O)[C@H](C)NC(=O)[C@H](CO)NC(=O)[C@H](CO)NC(=O)[C@H](CO)NC(=O)[C@@H](NC(=O)[C@@H]1CCCN1C(=O)[C@H](C)NC(=O)[C@H](CO)NC(=O)[C@H](Cc1ccc(O)cc1)NC(=O)[C@H](CO)NC(=O)[C@H](CO)NC(=O)[C@H](Cc1ccc(O)cc1)NC(=O)CCCC[C@@H]1SC[C@@H]2NC(=O)N[C@@H]21)C(C)C)C(=O)N[C@@H](CCCNC(=N)N)C(=O)N[C@@H](CCCNC(=N)N)C(=O)N[C@@H](CO)C(=O)N[C@@H](Cc1ccc(O)cc1)C(=O)N[C@@H](CO)C(=O)N[C@@H](CO)C(=O)N[C@@H](CO)C(=O)N[C@@H](CO)C(=O)NCC(=O)N[C@@H](CO)C(N)=O [Leu12Ala] (Biotin-YSSYSAPVSSSASVRRSYSSSSGS-NH2) | 15.5±2.8 % of cells | 0 % of cells | – |
| CC(C)C[C@H](NC(=O)[C@H](CO)NC(=O)[C@H](CO)NC(=O)[C@H](CO)NC(=O)[C@@H](NC(=O)[C@@H]1CCCN1C(=O)[C@H](C)NC(=O)[C@H](CO)NC(=O)[C@H](Cc1ccc(O)cc1)NC(=O)[C@H](CO)NC(=O)[C@H](CO)NC(=O)[C@H](Cc1ccc(O)cc1)NC(=O)CCCC[C@@H]1SC[C@@H]2NC(=O)N[C@@H]21)C(C)C)C(=O)N[C@@H](CO)C(=O)N[C@H](C(=O)N[C@@H](CCCNC(=N)N)C(=O)N[C@@H](C)C(=O)N[C@@H](CO)C(=O)N[C@@H](Cc1ccc(O)cc1)C(=O)N[C@@H](CO)C(=O)N[C@@H](CO)C(=O)N[C@@H](CO)C(=O)N[C@@H](CO)C(=O)NCC(=O)N[C@@H](CO)C(N)=O)C(C)C [Arg16Ala] (Biotin-YSSYSAPVSSSLSVRASYSSSSGS-NH2) | 15.6±3.0 % of cells | 0 % of cells | – |
| CC(C)C[C@H](NC(=O)[C@H](CO)NC(=O)[C@H](CO)NC(=O)[C@H](CO)NC(=O)[C@@H](NC(=O)[C@@H]1CCCN1C(=O)[C@H](C)NC(=O)[C@H](CO)NC(=O)[C@H](Cc1ccc(O)cc1)NC(=O)[C@H](CO)NC(=O)[C@H](C)NC(=O)[C@H](Cc1ccc(O)cc1)NC(=O)CCCC[C@@H]1SC[C@@H]2NC(=O)N[C@@H]21)C(C)C)C(=O)N[C@@H](CO)C(=O)N[C@H](C(=O)N[C@@H](CCCNC(=N)N)C(=O)N[C@@H](CCCNC(=N)N)C(=O)N[C@@H](CO)C(=O)N[C@@H](Cc1ccc(O)cc1)C(=O)N[C@@H](CO)C(=O)N[C@@H](CO)C(=O)N[C@@H](CO)C(=O)N[C@@H](CO)C(=O)NCC(=O)N[C@@H](CO)C(N)=O)C(C)C [Ser2Ala] (Biotin-YASYSAPVSSSLSVRRSYSSSSGS-NH2) | 23.5±1.1 % of cells | 5.9±6.4 % of cells | – |
| CC(C)C[C@H](NC(=O)[C@H](CO)NC(=O)[C@H](CO)NC(=O)[C@H](C)NC(=O)[C@@H](NC(=O)[C@@H]1CCCN1C(=O)[C@H](C)NC(=O)[C@H](CO)NC(=O)[C@H](Cc1ccc(O)cc1)NC(=O)[C@H](CO)NC(=O)[C@H](CO)NC(=O)[C@H](Cc1ccc(O)cc1)NC(=O)CCCC[C@@H]1SC[C@@H]2NC(=O)N[C@@H]21)C(C)C)C(=O)N[C@@H](CO)C(=O)N[C@H](C(=O)N[C@@H](CCCNC(=N)N)C(=O)N[C@@H](CCCNC(=N)N)C(=O)N[C@@H](CO)C(=O)N[C@@H](Cc1ccc(O)cc1)C(=O)N[C@@H](CO)C(=O)N[C@@H](CO)C(=O)N[C@@H](CO)C(=O)N[C@@H](CO)C(=O)NCC(=O)N[C@@H](CO)C(N)=O)C(C)C [Ser9Ala] (Biotin-YSSYSAPVASSLSVRRSYSSSSGS-NH2) | 27.1±4.8 % of cells | 23.3±8.4 % of cells | penetrated in cells significantly although to a much lesser extent than the wt peptide |
| CC(C)C[C@H](NC(=O)[C@H](CO)NC(=O)[C@H](CO)NC(=O)[C@H](CO)NC(=O)[C@H](C)NC(=O)[C@@H]1CCCN1C(=O)[C@H](C)NC(=O)[C@H](CO)NC(=O)[C@H](Cc1ccc(O)cc1)NC(=O)[C@H](CO)NC(=O)[C@H](CO)NC(=O)[C@H](Cc1ccc(O)cc1)NC(=O)CCCC[C@@H]1SC[C@@H]2NC(=O)N[C@@H]21)C(=O)N[C@@H](CO)C(=O)N[C@H](C(=O)N[C@@H](CCCNC(=N)N)C(=O)N[C@@H](CCCNC(=N)N)C(=O)N[C@@H](CO)C(=O)N[C@@H](Cc1ccc(O)cc1)C(=O)N[C@@H](CO)C(=O)N[C@@H](CO)C(=O)N[C@@H](CO)C(=O)N[C@@H](CO)C(=O)NCC(=O)N[C@@H](CO)C(N)=O)C(C)C [Val8Ala] (Biotin-YSSYSAPASSSLSVRRSYSSSSGS-NH2) | 23.6±2.1 % of cells | 9.9±3.4 % of cells | – |
